Measurements as given in patent US9518008B2, “(1S,2S,3S,4R)-3-[(1S)-1-acetylamino-2-ethyl-butyl]-4-uanidino-2-hydroxyl-cyclopentyl-1-carboxylic acid hydrates pharmaceutical uses thereof” (Institute of Pharmacology and Toxicology Academy of …, priority 2007, dated 2016).
Like-named read-outs stand apart in the source and are kept apart here.

Legend:
[1] = Determination of hygroscopicity (high humidity test); assay type: physicochemical
Protocol: The hygroscopicity of the compound of the invention can be tested by a standard hygroscopicity test method. For example, the compound is stored in a sealed vessel at room temperature at a relative humidity of 92.5%, 80% or 75%, and the change in moisture content of the compound is tested by sampling at regular intervals.
At the 5th and 10th days, the products were sampled and determined in aspect of important items relating to stability investigation. […] If the weight gain of a product due to moisture absorption was more than 5%, the product was further experimented according to the same method under a relative humidity of 75%±5%. If the weight gain of a product due to moisture absorption was less than 5%, and other items thereof under investigation met the relevant requirements, no more experiment was needed. The humidity-constant condition could be achieved by placing a saturated saline solution at the lower part of a sealed vessel, e.g., a desiccator, and a NaCl saturated solution (15.5-60° C., a relative humidity of 75%±1%) or a KNO3 saturated solution (25° C., a relative humidity of 92.5%) may be selected according to the requirement of different relative humidity.

[2] = Accelerated stability test of the hydrates; conditions: for Character / Content / Change in weight: 40° C., 75% RH
Protocol: The stability of the compound of the invention can be tested by a standard stability test method, such as the methods specified in Guidelines for Stability Testing of Drug Substances involved in Appendix XIX C of Chinese Pharmacopoeia (2005 edition). For example, the stability of the compound of the general formula (I) can be tested by an accelerated stability test method, e.g., the stability of the compound of the general formula (I), at 0, 1, 2, 3, 6 months, is tested respectively under the conditions: 40° C., 75% relative humidity; 40° C., 92.5% relative humidity; and 80° C. The change in principal agent and relevant substances can be analyzed by thin layer chromatography, high performance liquid chromatography, and etc.
The device used should be capable of controlling temperature with a precise of ±2° C., and relative humidity with a precise of ±5%, and could monitor true temperature and humidity. The products were sampled respectively at the end of the 1, 2, 3 and 6 months during the test, and determined in aspect of important items relating to stability investigation.

[3] = Dissolution behavior in water; assay type: physicochemical; conditions: for dissolution behavior: 100 ml: 300 mg
Protocol: (1) water for injection (room temperature)
(2) water for injection (80° C.)
(3) water for injection (room temperature, adjusted to be acidic with hydrochloric acid)
(4) water for injection (adjusted to be basic with disodium hydrogen phosphate)

[4] = Influence of different acidic conditions (pH) on stability of trihydrate solution, sterilization; assay type: physicochemical; conditions: conclusion from sterilization and 60° C. data
Protocol: The resulting solutions were high pressure steam sterilized at 115° C. for 30 minutes. Then, the solutions were sampled for the determination of change in pH value and change in amount of relevant substances.

[5] = target: Influenza A virus (H3N2) neuraminidase (Influenza A virus, UniProt P03482); test: Neuraminidase inhibition by fluorimetry with 4-MUNANA; assay type: biochemical
[6] = test system: Influenza B virus (B/Jing Fang/76/98) neuraminidase; test: as above; assay type: biochemical
[7] = test system: influenza virus strain FM1 (H1N1); test: Anti-influenza activity in infected mice (survival); assay type: in vivo, mice (BALB/C); conditions: 5 times, 14th day after infection
Protocol: A virus drip is prepared typically by including 500 pfu (plaque forming unit) of mice-compliance influenza virus strain in 50 μl phosphate buffer (containing 0.42% bovine serum albumin), and then dropped into nasal cavity of mice to infect them (BALB/C, female, aged 5-6 weeks, weighted 20 g). The compound of the invention is suspended in physiological saline to obtain different doses, typically from 2.5 mg/kg to 40 mg/kg, and is administered to the mice at different time before and after the viral infection, typically administered by intraperitoneal injection for 5 times, i.e., 1 hour, and 2, 3, 4, 5 days after the viral infection. The assay is performed by using 8 or 12, typically 10 mice. The result is expressed by the ratio of the number of survival mice the 14th day after the viral infection to the number of the mice in assay.
A solution was prepared by including 500 pfu (plaque forming unit) of mice-compliance influenza virus strain FM1 (H1N1) in 50 μl phosphate buffer (containing 0.42% bovine serum albumin), and then dropped into nasal cavity of mice (BALB/C, female, aged 5-6 weeks, weighted 20 g) to infect them with an infective dose of 23.7LD50. The compound of the invention was suspended in physiological saline, and was administered in doses of 2.5 mg/kg, 5 mg/kg, 10 mg/kg, 20 mg/kg to the mice by intraperitoneal injection for 5 times, i.e., 1 hour, and 2, 3, 4, 5 days after the viral infection, respectively. The assay was performed by 10 mice. The result was expressed by the ratio of the number of survival mice the 14th day after the viral infection to the number of the mice in assay.

[8] = Relative humidity 92.5%, 25° C.
[9] = Con. 0.01 nM, virus concentration NA 1/40
[10] = Con. 0.1 nM, virus concentration NA 1/40
[11] = Con. 1 nM, virus concentration NA 1/40
[12] = Con. 10 nM, virus concentration NA 1/40
[13] = Con. 100 nM, virus concentration NA 1/40
[14] = virus concentration NA 1/40, read-out: IC50

Influenza A virus (H3N2) neuraminidase, sequence (P03482 whole entry, looked up): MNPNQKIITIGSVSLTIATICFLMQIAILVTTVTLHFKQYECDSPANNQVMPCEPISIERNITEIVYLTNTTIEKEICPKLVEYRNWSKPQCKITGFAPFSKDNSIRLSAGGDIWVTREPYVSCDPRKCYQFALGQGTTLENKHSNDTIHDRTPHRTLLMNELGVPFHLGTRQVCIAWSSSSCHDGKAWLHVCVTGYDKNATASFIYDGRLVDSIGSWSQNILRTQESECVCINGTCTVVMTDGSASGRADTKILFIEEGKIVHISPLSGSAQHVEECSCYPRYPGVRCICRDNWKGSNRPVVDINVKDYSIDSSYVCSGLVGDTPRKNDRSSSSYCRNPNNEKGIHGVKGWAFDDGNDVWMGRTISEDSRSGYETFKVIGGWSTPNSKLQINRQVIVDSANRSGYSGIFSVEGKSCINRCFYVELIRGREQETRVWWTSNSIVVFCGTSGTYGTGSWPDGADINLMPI

For `CCC(CC)[C@H](NC(C)=O)[C@H]1[C@H](O)[C@@H](C(=O)O)C[C@H]1NC(=N)N.CCC(CC)[C@H](NC(C)=O)[C@H]1[C@H](O)[C@@H](C(=O)O)C[C@H]1NC(=N)N.O.O.O` [Sesquihydrate, (1S,2S,3S,4R)-3-[(1S)-1-acetylamino-2-ethyl-butyl]-4-guanidino-2-hydroxy-cyclopentyl-1-carboxylic acid sesquihydrate], the “Hygroscopicity at the 5th day” value ([1]; Relative humidity 75%) was 4.01%, the “Hygroscopicity at the 10th day” value ([1]; Relative humidity 75%) was 6.89% and the “Hygroscopicity at the 5th day” value [1, 8] was 4.48%. For the same compound, the “Hygroscopicity at the 10th day” value [1, 8] was 7.33%.
In the case of `CCC(CC)[C@H](NC(C)=O)[C@H]1[C@H](O)[C@@H](C(=O)O)C[C@H]1NC(=N)N.O.O.O.O.O.O` [Hexahydrate, (1S,2S,3S,4R)-3-[(1S)-1-acetylamino-2-ethyl-butyl]-4-guanidino-2-hydroxy-cyclopentyl-1-carboxylic acid hexahydrate], the “Hygroscopicity at the 5th day” value ([1]; Relative humidity 75%) is reported as 3.86%, the “Hygroscopicity at the 10th day” value ([1]; Relative humidity 75%) is reported as 6.33% and the “Hygroscopicity at the 5th day” value [1, 8] is reported as 4.37%. The “Hygroscopicity at the 10th day” value [1, 8] was 9.96%.
In the case of `CCC(CC)[C@H](NC(C)=O)[C@H]1[C@H](O)[C@@H](C(=O)O)C[C@H]1NC(=N)N.O` [Monohydrate, (1S,2S,3S,4R)-3-[(1S)-1-acetylamino-2-ethyl-butyl]-4-guanidino-2-hydroxy-cyclopentyl-1-carboxylic acid monohydrate], the “Hygroscopicity at the 5th day” value ([1]; Relative humidity 75%) is reported as 2.41%, the “Hygroscopicity at the 10th day” value ([1]; Relative humidity 75%) is reported as 2.77% and the “Hygroscopicity at the 5th day” value [1, 8] is reported as 2.83%. The “Hygroscopicity at the 10th day” value [1, 8] was 3.35%.
With `CCC(CC)[C@H](NC(C)=O)[C@H]1[C@H](O)[C@@H](C(=O)O)C[C@H]1NC(=N)N.O.O.O` [Trihydrate, (1S,2S,3S,4R)-3-[(1S)-1-acetylamino-2-ethyl-butyl]-4-guanidino-2-hydroxy-cyclopentyl-1-carboxylic acid trihydrate] the “Hygroscopicity at the 5th day” value ([1]; Relative humidity 75%) was 1.68%, the “Hygroscopicity at the 10th day” value ([1]; Relative humidity 75%) was 1.83% and the “Hygroscopicity at the 5th day” value [1, 8] was 2.11%. For the same compound, the “Hygroscopicity at the 10th day” value [1, 8] was 2.24%, the weight gain ([1]; ten-day observation test, sealed vessel, room temperature, high relative humidity) was “about 2.24%” and the Character ([2]; 0 month) was “White solid”. The Content ([2]; 0 month) was 99.90%, the Change in weight ([2]; 1 month) was “+0.01%” and the Character ([2]; 1 month) was “White solid”. The Content ([2]; 1 month) was 99.95%, the Change in weight ([2]; 2 months) was −0.02% and the Character ([2]; 2 months) was “White solid”. For the same compound, the Content ([2]; 2 months) was 99.97%, the Change in weight ([2]; 3 months) was “+0.01%” and the Character ([2]; 3 months) was “White solid”. For the same compound, the Content ([2]; 3 months) was 99.96%, the Change in weight ([2]; 6 months) was “+0.01%” and the Character ([2]; 6 months) was “White solid”. For the same compound, the Content ([2]; 6 months) was 99.91%, the “stability” value ([2]; stability test of 1, 2, 3, 6 months) was “good stability” and the dissolution behavior ([3]; (1) water for injection (room temperature)) was “slowly dissolved”. For the same compound, the dissolution behavior ([3]; (2) water for injection (80° C.)) was “rapidly dissolved”, the dissolution behavior ([3]; (3) water for injection, room temperature, acidic with hydrochloric acid) was “relatively easily dissolved” and the “dissolution behavior, condition (3) compared with (4)” value ([3]; (4) water for injection adjusted to be basic with disodium hydrogen phosphate) was “more easily dissolved under acidic condition”. The “optimum pH value (stability in solution)” value [4] was 4.5-6.5, the “inhibitory rate IR” value [5, 9] was 0.63% and the “inhibitory rate IR” value ([5]; Con. 0.01 nM, virus concentration NA 1/80) was 12.33%. For the same compound, the “inhibitory rate IR” value [5, 10] was 13.23%, the “inhibitory rate IR” value ([5]; Con. 0.1 nM, virus concentration NA 1/80) was 24.04% and the “inhibitory rate IR” value [5, 11] was 60.99%. The “inhibitory rate IR” value ([5]; Con. 1 nM, virus concentration NA 1/80) was 63.20%, the “inhibitory rate IR” value [5, 12] was 99.25% and the “inhibitory rate IR” value ([5]; Con. 10 nM, virus concentration NA 1/80) was 98.80%. For the same compound, the “inhibitory rate IR” value [5, 13] was 100.43%, the “inhibitory rate IR” value ([5]; Con. 100 nM, virus concentration NA 1/80) was 99.89% and the IC50 ([5]; average of NA 1/40 and NA 1/80, read-out: Average IC50) was 0.542 nM. The IC50 [5, 14] was 0.673 nM, the IC50 ([5]; virus concentration NA 1/80, read-out: IC50) was 0.411 nM and the “inhibitory rate IR” value ([6]; Con. 0.01 nM, virus concentration NA 1/20) was 8.81%. The “inhibitory rate IR” value [6, 9] was 7.92%, the “inhibitory rate IR” value ([6]; Con. 0.1 nM, virus concentration NA 1/20) was 15.31% and the “inhibitory rate IR” value [6, 10] was 19.17%. For the same compound, the “inhibitory rate IR” value ([6]; Con. 1 nM, virus concentration NA 1/20) was 39.11%, the “inhibitory rate IR” value [6, 11] was 44.84% and the “inhibitory rate IR” value ([6]; Con. 10 nM, virus concentration NA 1/20) was 82.01%. The “inhibitory rate IR” value [6, 12] was 81.45%, the “inhibitory rate IR” value ([6]; Con. 100 nM, virus concentration NA 1/20) was 97.78% and the “inhibitory rate IR” value [6, 13] was 96.71%. For the same compound, the IC50 ([6]; average of NA 1/20 and NA 1/40, read-out: Average IC50) was 1.07 nM, the IC50 ([6]; virus concentration NA 1/20, read-out: IC50) was 1.14 nM and the IC50 [6, 14] was 0.998 nM. For the same compound, the Survival number ([7]; 2.5 mg/kg intraperitoneal) was 6/10, the Survival rate ([7]; 2.5 mg/kg intraperitoneal) was 60% and the Survival number ([7]; 5.0 mg/kg intraperitoneal) was 7/10. For the same compound, the Survival rate ([7]; 5.0 mg/kg intraperitoneal) was 70%, the Survival number ([7]; 10 mg/kg intraperitoneal) was 8/10 and the Survival rate ([7]; 10 mg/kg intraperitoneal) was 80%. For the same compound, the Survival number ([7]; 20 mg/kg intraperitoneal) was 9/10 and the Survival rate ([7]; 20 mg/kg intraperitoneal) was 90%.
